Results: patent publication US7863337B2, “Use of triacontanol in preparation of medicaments for treatment of cancers” (priority 2006, dated 2011)

Assays:
[1] = system: murine hepatoma H22; assay: Curative effect test against murine hepatoma H22 by gavaging a thixotropic oil suspension of triacontanol; assay type: in vivo, mice
Method: (§1) Experiment method: […] of the tumor models of murine hepatoma H22, intestinal cancer C26 and Lewis lung cancer by hypodermic inoculating in the murine in vivo
(§2) A cancer cell suspension is prepared from the tumor source by homogenate technique, and then is inoculated subcutaneously under the armpit. After 24 hours, medication is administrated according to a predesigned scheme, and finally, an inhibition rate statistic against the tumor is obtained by comparing with a negative control group.

[2] = system: murine hepatoma H22; assay: Curative effect test against murine hepatoma H22 (inoculated under the armpit) by gavaging a triacontanol oil agent; assay type: in vivo, mice
Method: as §1, §2

[3] = Effect to the thymus index and spleen index of murine by gavaging a triacontanol oil agent; assay type: in vivo; details: tumor-bearing mice
[4] = system: Lewis lung cancer; assay: Curative effect test against murine Lewis lung cancer (hypodermically inoculated) by intravenous administration of a triacontanol emulsion; assay type: in vivo, mice; details: 7 mg/kg/d
Method: as §1, §2

[5] = system: intestinal cancer C26; assay: Curative effect test against murine intestinal cancer C26 (hypodermically inoculated) by gavaging a 352B oil agent; assay type: in vivo, mice; details: 7 mg/kg/d
Method: as §1, §2

[6] = 100 mg/kg (middle dosage), gavage
[7] = 150 mg/kg (high dosage), gavage
[8] = ipx2, vs negative control group

## CCCCCCCCCCCCCCCCCCCCCCCCCCCCCCO [352B, triacontanol]
[1]; summary of the above tests (H22, Lewis lung cancer, C26)
  antitumor effect (summary in words): prominent antitumor effect
[2]; 50 mg/kg (low dosage), gavage
  Weight (g) After administration: 23.51 ± 1.99 g
  Weight of the tumor: 0.72 ± 0.38 g
[2]; 50 mg/kg (low dosage), gavage, compared with the menstruum control group
  Inhibition rate (%): 48.13%
[2]; [6]
  Weight (g) After administration: 23.20 ± 2.86 g
  Weight of the tumor: 0.57 ± 0.28 g
[2]; 100 mg/kg (middle dosage), gavage, compared with the menstruum control group
  Inhibition rate (%): 58.95%
[2]; [7]
  Weight (g) After administration: 23.52 ± 2.36 g
  Weight of the tumor: 0.49 ± 0.25 g
[2]; 150 mg/kg (high dosage), gavage, compared with the menstruum control group
  Inhibition rate (%): 64.59%
[3]; 50 mg/kg (low dosage), gavage
  Spleen index (mg/10 g body weight): 67.1 ± 13.7 mg/10 g body weight
  Thymus index (mg/10 g body weight): 45 ± 6.72 mg/10 g body weight
  Weight of spleen: 153.52 ± 35.62 mg
  Weight of thymus: 102.14 ± 15.90 mg
[3]; [6]
  Spleen index (mg/10 g body weight): 62.1 ± 17.5 mg/10 g body weight
  Thymus index (mg/10 g body weight): 38.7 ± 8.08 mg/10 g body weight
  Weight of spleen: 139.98 ± 41.62 mg
  Weight of thymus: 86.87 ± 16.44 mg
[3]; [7]
  Spleen index (mg/10 g body weight): 65.7 ± 12.3 mg/10 g body weight
  Thymus index (mg/10 g body weight): 37.7 ± 6.73 mg/10 g body weight
  Weight of spleen: 151.26 ± 32.16 mg
  Weight of thymus: 86.86 ± 16.14 mg
[3]; summary in words
  effect to the important immune organ (thymus and spleen): hasn't obvious effect to the important immune organ

## N.N.[Cl][Pt][Cl] [DDP]
[1]; 7 mg/kg/d, igx2
  Weight of the animal (g) at last: 21.4/25.4 g
  Weight of the tumor (g) X ± SD: 1.269 ± 0.13 g
[1]; 7 mg/kg/d, igx2, vs negative control group
  Inhibition rate (%): 91.0%
[4]; ipx2
  Weight of the animal (g) at last: 19.2/20.9 g
  Weight of the tumor (g) X ± SD: 0.278 ± 0.14 g
[4]; [8]
  Inhibition rate (%): 89.00%
[5]; ipx2
  Weight of the animal (g) at last: 19.1/24.1 g
  Weight of the tumor (g) X ± SD: 0.346 ± 0.13 g
[5]; [8]
  Inhibition rate (%): 86.99%
[2]; 0.001 mg/kg
  Weight of the tumor: 0.31 ± 0.19 g
[2]; 0.001 mg/kg, compared with the NS control group
  Inhibition rate (%): 79.76%
[3]; 0.001 mg/kg
  Spleen index (mg/10 g body weight): 46 ± 8.18 mg/10 g body weight
  Thymus index (mg/10 g body weight): 30.7 ± 8.06 mg/10 g body weight
  Weight of spleen: 88.90 ± 27.79 mg
  Weight of thymus: 59.61 ± 22.45 mg
